Measured values reported in US20090221624A1, “4-AMINOQUINOLINE COMPOUNDS FOR TREATING VIRUS-RELATED CONDITIONS” (priority 2005, published 2009).

Key:
DNG (D2-hRuPac cells) = experiment: DNG antiviral activity, D2-hRuPac cells, Renilla luciferase; assay type: cell-based, Dengue fever virus; settings: Dengue virus, secondary screening
[1] = tested on: HCV replicon (Clone A cells, Huh7, subgenomic hepatits C virus RNA); experiment: HCV Neo screening assay (HCV replicon, NPTII ELISA); assay type: cell-based, hepatitis C virus; settings: for EC50 / inhibition at 25 µM: Hepatitis C virus, Huh-7; for EC50: Secondary Data, HCV; for inhibition at 25 µM: primary screening, 25 μM final concentration, 24 hours, percent inhibition of viral replication, read-out: HCV Inh; for HCV TI: therapeutic index CC50/EC50, HCV
WNV (WN-hRuPac cells) = experiment: WNV antiviral activity, WN-hRuPac cells, Renilla luciferase; assay type: cell-based, West Nile virus; settings: for EC50 / inhibition at 25 µM: West Nile virus; for EC50: Secondary Data, WNV, read-out: WNV EC50; for inhibition at 25 µM: primary screening, 25 μM final concentration, 24 hours, percent inhibition of viral replication, read-out: WNV Inh; for WNV TI: therapeutic index CC50/EC50, WNV
YFV (YF-hRuPac cells) = experiment: microbe, parasite or virus in culture; assay type: cell-based, yellow fever virus; settings: for inhibition at 25 µM / EC50: Yellow fever virus; for inhibition at 25 µM: 24 h, read-out: YFV Inh; for EC50: read-out: YFV EC50
EBOV minigenome = experiment: microbe, parasite or virus in culture; assay type: cell-based, Ebola virus; settings: Zaire ebolavirus; for inhibition at 25 µM: 24 h, read-out: EBOV Inh; for EC50: read-out: EBOV EC50
SINV (SR19-F-luc cells) = experiment: SINV antiviral activity, SR19-F-luc cells, Firefly luciferase; assay type: cell-based; settings: Sindbis virus; for inhibition at 25 µM: primary screening, 25 μM final concentration, 24 hours, percent inhibition of viral replication, read-out: SINV Inh; for EC50: secondary screening, SR19-F-luc cells
RSV minigenome = experiment: RSV minigenome-dependent β-galactosidase expression assay (RSV β-Gal); assay type: cell-based, respiratory syncytial virus; settings: for EC50 / inhibition at 25 µM: human respiratory syncytial virus; for EC50: Secondary Data, RSV, read-out: RSV EC50; for inhibition at 25 µM: primary screening, 25 μM final concentration, 24 hours, percent inhibition of viral replication, read-out: RSV Inh; for RSV TI: therapeutic index CC50/EC50, RSV

Row | SMILES | EC50 (DNG (D2-hRuPac cells)) | inhibition at 25 µM [1] | EC50 (WNV (WN-hRuPac cells)) | inhibition at 25 µM (WNV (WN-hRuPac cells)) | WNV TI (WNV (WN-hRuPac cells)) | YFV TI (YFV (YF-hRuPac cells)) | inhibition at 25 µM (YFV (YF-hRuPac cells)) | EC50 (YFV (YF-hRuPac cells)) | inhibition at 25 µM (EBOV minigenome) | EC50 (EBOV minigenome) | inhibition at 25 µM (SINV (SR19-F-luc cells)) | EC50 (SINV (SR19-F-luc cells)) | CC50 (in vitro; DNG CC50) | CC50 (in vitro; EBOV CC50) | CC50 (in vitro; HCV CC50) | CC50 (in vitro; RSV CC50) | CC50 (in vitro; SINV CC50) | CC50 (in vitro; WNV CC50) | CC50 (in vitro; YFV CC50) | EC50 (RSV minigenome) | further results
1 | CCOC(=O)c1cnc2c(Cl)cc(Cl)cc2c1NCc1ccco1 [Compound 52] | 15.8 µM | 76.5% | 10.8 µM | 88.9% | 4.08 | 8.84 | 90% | 4.99 µM | 76.9% | 13.2 µM | 10.2% | 24.8 µM | 44.1 µM | 44.1 µM | 70.2 µM | 44.1 µM | 44.1 µM | 44.1 µM | 44.1 µM | 2.51 µM | EC50 [1]: 12.5 µM; HCV TI [1]: 5.62; inhibition at 25 µM (RSV minigenome): 99.1%; RSV TI (RSV minigenome): 17.57
2 | Cc1cc(C)c2nc(C)cc(Nc3ccc(Cl)c(Cl)c3)c2c1 [Compound 53] | 28.7 µM | 150% | 20.9 µM | 91.9% | 2.35 | 7.6 | 79.9% | 6.47 µM | 75.6% | 75 µM | 88.1% | 6.69 µM | 49.1 µM | 49.1 µM | 8.3 µM | 49.1 µM | 49.1 µM | 49.1 µM | 49.1 µM | 3.78 µM | EC50 [1]: 4.78 µM; HCV TI [1]: 1.74; inhibition at 25 µM (RSV minigenome): 100%; RSV TI (RSV minigenome): 13
3 | Cc1cc(C)c2nc(C)cc(NCc3ccco3)c2c1 [Compound 54] | 21.9 µM | 101% | 6.91 µM | 84.4% | 7.26 | 12.13 | 91.1% | 4.14 µM | 38.4% | 75 µM | 47.8% | 38.3 µM | 50.2 µM | 50.2 µM | 23.9 µM | 50.2 µM | 50.2 µM | 50.2 µM | 50.2 µM | 5.8 µM | EC50 [1]: 26 µM; HCV TI [1]: 0.92; inhibition at 25 µM (RSV minigenome): 87.9%; RSV TI (RSV minigenome): 8.66
4 | CCOC(=O)c1cnc2c(Cl)cccc2c1NCc1ccco1 [Compound 55] | 8.53 µM | 21.9% | 13 µM | 94.9% | 3.72 | 7.96 | 94.3% | 6.07 µM | 72.8% | 10.4 µM | 29.1% | ≥ 75 µM | 48.3 µM | 48.3 µM | ≥ 75 µM | 48.3 µM | 48.3 µM | 48.3 µM | 48.3 µM | 5.46 µM | inhibition at 25 µM (RSV minigenome): 81.5%; RSV TI (RSV minigenome): 8.85
5 | CCOc1ccc2nc(C)cc(Nc3ccc(OC)c(OC)c3)c2c1 [Compound 56] | 8.48 µM | 128% | 3.5 µM | 95.7% | 7.95 | 7.93 | 98.7% | 3.51 µM | 89.3% | 47.5 µM | 95.8% | 2.33 µM | 27.8 µM | 27.8 µM | 6.69 µM | 27.8 µM | 27.8 µM | 27.8 µM | 27.8 µM | 3.33 µM | EC50 [1]: 4.56 µM; HCV TI [1]: 1.47; inhibition at 25 µM (RSV minigenome): 99%; RSV TI (RSV minigenome): 8.36
6 | CCOc1ccc2nc(C)cc(Nc3ccc(N(C)C)cc3)c2c1 [Compound 57] | 6.28 µM | 136% | 3.6 µM | 85.7% | 8.62 | 11.24 | 95.8% | 2.76 µM | 70.8% | 75 µM | 87.7% | 3.97 µM | 31 µM | 31 µM | 4.23 µM | 31 µM | 31 µM | 31 µM | 31 µM | 4.56 µM | EC50 [1]: 4.98 µM; HCV TI [1]: 0.85; inhibition at 25 µM (RSV minigenome): 97.9%; RSV TI (RSV minigenome): 6.8
7 | CCOc1ccc2nc(C)cc(Nc3cc(Cl)ccc3OC)c2c1 [Compound 58] | 6.91 µM | 137% | 3.8 µM | 91.5% | 4.91 | 7.04 | 96.6% | 2.65 µM | 80.2% | 4.94 µM | 92.8% | 4.2 µM | 18.7 µM | 18.7 µM | 11.8 µM | 18.7 µM | 18.7 µM | 18.7 µM | 18.7 µM | 2.34 µM | EC50 [1]: 4.95 µM; HCV TI [1]: 2.38; inhibition at 25 µM (RSV minigenome): 99.8%; RSV TI (RSV minigenome): 7.98
8 | COC(=O)c1ccc(Nc2cc(C)nc3ccc(Cl)cc23)cc1 [Compound 60] | 15.2 µM | 71.3% | 14.6 µM | 68.3% | 5.14 | 2.17 | 79.4% | 34.6 µM | 57.4% | 75 µM | 45.8% | 12 µM | ≥ 75 µM | ≥ 75 µM | 45.5 µM | ≥ 75 µM | ≥ 75 µM | ≥ 75 µM | ≥ 75 µM | ≥ 75 µM | EC50 [1]: 1.4 µM; HCV TI [1]: 32.5; inhibition at 25 µM (RSV minigenome): 38.1%
